The NIST ThermoML archive (doi:10.1016/j.fluid.2016.07.018)
Numbers after ± are expanded uncertainties.

Details: Liquid
[1] = 313.15 K, gas saturation method
[2] = 333.15 K, gas saturation method
[3] = 353.15 K, gas saturation method
[4] = 373.15 K, gas saturation method
[5] = 393.15 K, gas saturation method
[6] = 423.15 K, gas saturation method

Row | SMILES | vapor or sublimation pressure [1] [kPa] | vapor or sublimation pressure [2] [kPa] | vapor or sublimation pressure [3] [kPa] | vapor or sublimation pressure [4] [kPa] | vapor or sublimation pressure (381.51 K, Closed cell (Static) method) [kPa] | vapor or sublimation pressure (391.7 K, Closed cell (Static) method) [kPa] | vapor or sublimation pressure [5] [kPa] | vapor or sublimation pressure (401.69 K, Closed cell (Static) method) [kPa] | vapor or sublimation pressure (411.58 K, Closed cell (Static) method) [kPa] | vapor or sublimation pressure (421.43 K, Closed cell (Static) method) [kPa] | vapor or sublimation pressure [6] [kPa]
1 | CCCCOC(=O)c1ccccc1C(=O)OCCCC [dibutyl phthalate] | 2.4e-05 ± 2e-06 | 0.000195 ± 1.5e-05 | 0.001289 ± 0.0001 | 0.006211 ± 0.00057 | 0.0127 ± 0.0007 | 0.0248 ± 0.0009 | 0.02452 ± 0.0019 | 0.0461 ± 0.0013 | 0.0824 ± 0.0021 | 0.1441 ± 0.0028 | 0.151 ± 0.012
2 | CC(C)COC(=O)c1ccccc1C(=O)OCC(C)C [diisobutyl 1,2-benzenedioate] | 4.1e-05 ± 3e-06 | 0.000436 ± 4.3e-05 | 0.002796 ± 0.00025 | 0.01285 ± 0.001 | – | – | 0.0445 ± 0.0035 | – | – | – | 0.2156 ± 0.017
